Assay results reported in US20260049085A1, “CYCLIC COMPOUNDS AND METHODS OF USING SAME” (SCHRÖDINGER, INC., priority 2022, published 2026).

Molecular target: T1, full-length MALT1 protein His-MALT1(1-824) (Homo sapiens, UniProt Q9UDY8)
T1 construct: full-length MALT1 protein His-MALT1(1-824); His (N); made in house; host or cells: baculovirus-infected insect cells
T1 sequence (Q9UDY8 1-824): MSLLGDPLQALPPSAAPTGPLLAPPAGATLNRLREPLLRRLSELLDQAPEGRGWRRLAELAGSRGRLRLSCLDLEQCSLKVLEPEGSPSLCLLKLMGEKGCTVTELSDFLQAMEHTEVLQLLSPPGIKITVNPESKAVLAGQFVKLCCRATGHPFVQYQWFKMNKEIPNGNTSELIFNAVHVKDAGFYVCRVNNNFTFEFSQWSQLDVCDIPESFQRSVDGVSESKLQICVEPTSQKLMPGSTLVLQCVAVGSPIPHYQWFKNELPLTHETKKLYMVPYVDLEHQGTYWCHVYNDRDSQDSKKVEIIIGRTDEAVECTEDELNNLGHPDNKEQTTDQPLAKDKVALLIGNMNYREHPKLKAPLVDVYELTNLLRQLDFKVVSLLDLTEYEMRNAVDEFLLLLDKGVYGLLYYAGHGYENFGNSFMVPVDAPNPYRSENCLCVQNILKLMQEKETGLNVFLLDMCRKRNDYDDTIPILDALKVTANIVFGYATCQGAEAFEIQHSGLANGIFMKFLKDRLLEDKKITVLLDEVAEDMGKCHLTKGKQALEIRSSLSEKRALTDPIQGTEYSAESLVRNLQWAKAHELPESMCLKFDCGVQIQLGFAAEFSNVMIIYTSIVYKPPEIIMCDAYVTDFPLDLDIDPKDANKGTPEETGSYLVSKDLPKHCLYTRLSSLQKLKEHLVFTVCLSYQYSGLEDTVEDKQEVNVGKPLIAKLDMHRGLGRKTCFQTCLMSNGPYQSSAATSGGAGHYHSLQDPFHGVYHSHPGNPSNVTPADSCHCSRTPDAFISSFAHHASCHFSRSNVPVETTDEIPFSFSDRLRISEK
Assay: MALT1 protease assay (Ac-LRSR-AMC tetrapeptide substrate, fluorescence)
Format: biochemical
Conditions: 1 nM MALT1, 25 μM Ac-LRSR-AMC, 2 h pre-incubation, 8 hr incubation at RT
Experimental: MALT1 protease activity was assessed in an in vitro assay using a tetrapeptide as substrate and full-length MALT1 protein His-MALT1(1-824) purified from baculovirus-infected insect cells.
The final assay buffer includes 1 nM of MALT1 full-length protein, 25 μM Ac-LRSR-AMC substrate, 50 mM Tris pH 7.5, 600 mM Sodium Citrate, 1 mM DTT, 1 mM EDTA, and 0.05% BSA in 384-well plate format using black microtiter square well plates (Optiplate 384-F, Perkin Elmer).
Test compounds were dissolved in 100% DMSO stock of 10 mM, with final DMSO concentration of 0.1%. Test compounds were pre-incubated with MALT1 protein for 2 h at room temperature. Substrate was added after the pre-incubation and fluorescence signal was measured using Envision at excitation 355 nm and emission 460 nm after 8 hr incubation at RT.
The fluorescence units were transformed to percentage of remaining activity by using the high control (HC, median of fluorescence signal from wells containing MALT1 protein, substrate, and DMSO) and low control (LC, median of fluorescence signal from wells with substrate only) with the formula below: […]
IC50 and Hill coefficients were obtained using Graph Pad Prism (Graph Pad software, Inc, USA) with non-linear regression analysis.

Row | SMILES | IC50
1 | CC(F)(F)n1cc([C@]2(C)C[C@@H](C(=O)Nc3cnc(-n4nccn4)c(Cl)c3)c3cnc4cc(F)nn4c32)cn1 (single isomer, unassigned) [Example 121] | ≥ 1000 nM
2 | Cn1ccc([C@@]2(C)C[C@@H](C(=O)Nc3cnc(OC(F)F)c(C#N)c3)c3cnc4cc(F)nn4c32)n1 (single isomer, unassigned) [Example 71] | ≥ 1000 nM
3 | CC(F)(F)n1ccc([C@]2(C)C[C@@H](C(=O)Nc3cnc(-c4ncccn4)c(Cl)c3)c3cnc4cc(F)nn4c32)n1 (single isomer, unassigned) [Example 169] | ≥ 1000 nM
4 | COc1cc(NC(=O)[C@H]2C[C@@](C)(c3ccn(C(F)F)n3)c3c2cnc2cc(F)nn32)cnc1-c1ncccn1 (single isomer, unassigned) [Example 181] | ≥ 1000 nM
5 | Cn1cc([C@]2(C)C[C@@H](C(=O)Nc3cnc(-n4nccn4)c(Cl)c3)c3cnc4cc(Cl)nn4c32)cn1 (single isomer, unassigned) [Example 9] | ≥ 1000 nM
6 | Cc1cc(NC(=O)C2CC(C)(c3ccn(C(F)F)n3)c3c2cnc2cc(F)nn32)cnc1-c1ncccn1 (single isomer, unassigned) [Example 184] | ≥ 1000 nM
7 | C[C@]1(c2cnn(C3CC3)c2)C[C@@H](C(=O)Nc2cnc(-n3nccn3)c(Cl)c2)c2cnc3cc(F)nn3c21 (single isomer, unassigned) [Example 31] | ≥ 1000 nM
8 | Cc1cc(NC(=O)[C@@H]2C[C@@](C)(c3cnn(C)c3)c3c2cnc2cc(F)nn32)cnc1OC(F)F (single isomer, unassigned) [Example 61] | ≥ 1000 nM
9 | Cc1cc(NC(=O)[C@@H]2C[C@](C)(c3cnn(C)c3)c3c2cnc2cc(F)nn32)cnc1OC(F)F (single isomer, unassigned) [Example 63] | ≥ 1000 nM
10 | Cn1cc([C@]2(C)C[C@@H](C(=O)Nc3cnc(OC(F)(F)F)c(C#N)c3)c3cnc4cc(F)nn4c32)cn1 (single isomer, unassigned) [Example 53] | ≥ 1000 nM
11 | Cc1cc2ncc3c(n2n1)[C@](C)(c1ccn(C(F)F)n1)C[C@@H]3C(=O)Nc1cnc(-c2ncccn2)c(C(F)(F)F)c1 (racemic) [Example 196, (cis)-8-(1-(difluoromethyl)-1H-pyrazol-3-yl)-2,8-dimethyl-N-(6-(pyrimidin-2-yl)-5-(trifluoromethyl)pyridin-3-yl)-7,8-dihydro-6H-cyclopenta[e]pyrazolo[1,5-a]pyrimidine-6-carboxamide] | 100 to 1000 nM
12 | C[C@@]1(c2cnn(C(F)F)c2)C[C@@H](C(=O)Nc2cnc(-n3nccn3)c(C(F)(F)F)c2)c2cnc3cc(F)nn3c21 (single isomer, unassigned) [Example 81] | ≥ 1000 nM
13 | Cn1cc([C@@]2(C)C[C@@H](C(=O)Nc3cnc(OC(F)(F)F)c(C#N)c3)c3cnc4cc(F)nn4c32)cn1 (single isomer, unassigned) [Example 55] | 100 to 1000 nM
14 | C[C@@]1(c2ccn(C(F)F)n2)C[C@H](C(=O)Nc2cnc(-c3ncccn3)c(Cl)c2)c2cnc3cc(F)nn3c21 (single isomer, unassigned) [Example 142] | ≥ 1000 nM
15 | C[C@]1(c2ccn(C(F)F)n2)C[C@@H](C(=O)Nc2ccc(-c3ncccn3)c(C(F)(F)F)c2)c2cnc3cc(F)nn3c21 (single isomer, unassigned) [Example 188] | 100 to 1000 nM
16 | Cn1cc([C@@]2(C)C[C@@H](C(=O)Nc3cnc(OC(F)F)c(C#N)c3)c3cnc4cc(F)nn4c32)cn1 (single isomer, unassigned) [Example 43] | 100 to 1000 nM
17 | C[C@@]1(c2cnn(C(F)F)c2)C[C@@H](C(=O)Nc2cnc(-c3ncccn3)c(C(F)(F)F)c2)c2cnc3cc(F)nn3c21 (single isomer, unassigned) [Example 149] | ≥ 1000 nM
18 | CC1(c2ccn(C(F)F)n2)CC(C(=O)Nc2cnc(-c3ncc(F)cn3)c(C(F)(F)F)c2)c2cnc3cc(F)nn3c21 (single isomer, unassigned) [Example 117] | 100 to 1000 nM
19 | C[C@@]1(c2ccn(C(F)F)n2)C[C@H](C(=O)Nc2cnc(OC(F)F)c(C#N)c2)c2cnc3cc(F)nn3c21 (single isomer, unassigned) [Example 112] | 100 to 1000 nM
20 | C[C@@]1(c2ccn(C(F)F)n2)C[C@@H](C(=O)Nc2cnc(OC(F)F)c(C#N)c2)c2cnc3cc(F)nn3c21 (single isomer, unassigned) [Example 111] | ≥ 1000 nM
21 | Cn1ccc([C@]2(C)C[C@H](C(=O)Nc3cnc(-n4nccn4)c(Cl)c3)c3cnc4cc(F)nn4c32)n1 (single isomer, unassigned) [Example 34] | 100 to 1000 nM
22 | C[C@@]1(c2ccn(C3CC3)n2)C[C@H](C(=O)Nc2cnc(-n3nccn3)c(Cl)c2)c2cnc3cc(F)nn3c21 (single isomer, unassigned) [Example 154] | 100 to 1000 nM

Other lines, results leading:

Row | IC50 | SMILES
23 | 100 to 1000 nM | CC(F)(F)n1ccc([C@]2(C)C[C@H](C(=O)Nc3cnc(-c4ncccn4)c(C(F)(F)F)c3)c3cnc4cc(F)nn4c32)n1 (single isomer, unassigned) [Example 166, (cis)-8-(1-(1,1-difluoroethyl)-1H-pyrazol-3-yl)-2-fluoro-8-methyl-N-(6-(pyrimidin-2-yl)-5-(trifluoromethyl)pyridin-3-yl)-7,8-dihydro-6H-cyclopenta[e]pyrazolo[1,5-a]pyrimidine-6-carboxamide]
24 | 100 to 1000 nM | CC(C)n1cc([C@@]2(C)C[C@@H](C(=O)Nc3cnc(-n4nccn4)c(Cl)c3)c3cnc4cc(F)nn4c32)cn1 (single isomer, unassigned) [Example 51]
25 | 100 to 1000 nM | Cn1cc([C@]2(C)C[C@H](C(=O)Nc3cnc(-n4nccn4)c(Cl)c3)c3cnc4cc(Cl)nn4c32)cn1 (single isomer, unassigned) [Example 10]
26 | 10 to 100 nM | CCn1cc([C@]2(C)C[C@H](C(=O)Nc3cnc(-n4nccn4)c(Cl)c3)c3cnc4cc(F)nn4c32)cn1 (single isomer, unassigned) [Example 22]
27 | 10 to 100 nM | C[C@@]1(c2cnn(C3CC3)c2)C[C@H](C(=O)Nc2cnc(-n3nccn3)c(Cl)c2)c2cnc3cc(F)nn3c21 (single isomer, unassigned) [Example 30]
28 | < 10 nM | C[C@]1(c2ccn(C3CC3)n2)C[C@H](C(=O)Nc2cnc(-n3nccn3)c(Cl)c2)c2cnc3cc(F)nn3c21 (single isomer, unassigned) [Example 152]
29 | 100 to 1000 nM | Cn1cc([C@]2(C)C[C@H](C(=O)Nc3ccnc(C(F)(F)F)c3)c3cnc4cc(Cl)nn4c32)cn1 (single isomer, unassigned) [Example 46]
30 | < 10 nM | C[C@]1(c2ccn(C(F)F)n2)C[C@H](C(=O)Nc2cnc(-c3ncccn3)c(C(F)(F)F)c2)c2cnc3cc(Cl)nn3c21 (single isomer, unassigned) [Example 171]
31 | 100 to 1000 nM | Cn1ccc([C@@]2(C)C[C@@H](C(=O)Nc3cnc(-n4nccn4)c(Cl)c3)c3cnc4cc(F)nn4c32)n1 (single isomer, unassigned) [Example 35]
32 | 10 to 100 nM | CC1(c2cnn(C(F)F)c2)CC(C(=O)Nc2cnc(N=S3(=O)CCC3)c(Cl)c2)c2cnc3cc(F)nn3c21 (single isomer, unassigned) [Example 96]
33 | 100 to 1000 nM | C[C@]1(c2cnn(C3CC3)c2)C[C@@H](C(=O)Nc2cnc(OC(F)F)c(C#N)c2)c2cnc3cc(F)nn3c21 (single isomer, unassigned) [Example 75]
34 | 10 to 100 nM | CC1(c2ccn(C(F)F)n2)CC(C(=O)Nc2cnc(-c3cccnn3)c(C(F)(F)F)c2)c2cnc3cc(F)nn3c21 (single isomer, unassigned) [Example 162]
35 | 10 to 100 nM | C[C@]1(c2cnn(C(F)(F)F)c2)C[C@H](C(=O)Nc2cnc(-n3nccn3)c(Cl)c2)c2cnc3cc(F)nn3c21 (single isomer, unassigned) [Example 102]
36 | < 10 nM | C[C@]1(c2cnn(CC(F)(F)F)c2)C[C@H](C(=O)Nc2cnc(-n3nccn3)c(Cl)c2)c2cnc3cc(F)nn3c21 (single isomer, unassigned) [Example 84]
37 | < 10 nM | C[C@]1(c2ccn(C(F)F)n2)C[C@H](C(=O)Nc2ccc(-c3ncccn3)c(C(F)(F)F)c2)c2cnc3cc(F)nn3c21 (single isomer, unassigned) [Example 185]
